Measurements: patent US7557268B1, “Promoter for expression of a gene and response to infection or wounding” (priority 1999, dated 2009)

Test system: pAG2339 promoter deletion (gus reporter) in PR8-2, PR8-3, PR8-12
Assay type: cell-based, tobacco

## O=C(O)c1ccccc1O [SA, salicylic acid]
  change of reporter gene activity (in words): no significant change
